According to patent publication US9695155B2, “Herbicidal substituted pyrimidinyloxy benzene compounds” (E. I. DU PONT DE NEMOURS AND COMPANY, priority 2013, dated 2017):
Like-named read-outs stand apart in the source and are kept apart here.

Assays:
Heteranthera limosa = assay: Test B flooded paddy test; format: in vivo; settings: Heteranthera limosa, Flood, 250 g ai/ha; 0 to 100 scale where 0 is no effect and 100 is complete control; read-out: Plant response rating, Ducksalad
Outline: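 Visual ratings on a 0 to 100 scale, where 100 means complete control, compared treated plants with controls after 13 to 15 days in a greenhouse. Treatment went into paddy water 3 cm deep over the soil, applied to plants at the 2-leaf stage.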

pigweed [1] = assay: Test C postemergence; format: in vivo, Amaranthus retroflexus; settings: for pest or weed control at 16 g/ha / pest or weed control at 125 g/ha / pest or weed control at 62 g/ha: Amaranthus retroflexus, post-emergence; for pest or weed control at 16 g/ha: 16 g ai/ha, 0 is no effect, 100 is complete control, read-out: Plant response rating (0 to 100), Pigweed; for pest or weed control at 125 g/ha: 125 g ai/ha; for pest or weed control at 125 g/ha / pest or weed control at 62 g/ha: read-out: Plant response rating, Pigweed; for pest or weed control at 62 g/ha: Postemergence, 62 g ai/ha
Outline: (§1)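 Greenhouse herbicide screen. Pre: seeded loam/sand, sprayed at planting. Post: 1–4 leaf plants (2–18 cm) in peat-based mix. Formulation: solvent mixture + surfactant, non-phytotoxic. Readout: visual % control vs untreated, 13–15 d; dash = not tested.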

pigweed [2] = assay: Test A preemergence; format: in vivo, Amaranthus retroflexus; settings: Amaranthus retroflexus, pre-emergence, 0 to 100 scale where 0 is no effect and 100 is complete control; for pest or weed control at 125 g/ha: 125 g ai/ha
Outline: (§2)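 Visual injury scored 0–100 (100 = complete control) against untreated controls about 10 days after treatment in a greenhouse. Test chemicals, formulated with surfactant in non-phytotoxic solvent, were sprayed on soil preemergence or on 2-10 cm, one- to two-leaf plants postemergence.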

morningglory = assay: Test C postemergence; format: in vivo, Ipomoea coccinea; settings: for pest or weed control at 16 g/ha / pest or weed control at 125 g/ha / pest or weed control at 62 g/ha: Ipomoea, post-emergence; for pest or weed control at 16 g/ha: 16 g ai/ha, 0 is no effect, 100 is complete control, read-out: Plant response rating (0 to 100), Morningglory; for pest or weed control at 125 g/ha: 125 g ai/ha; for pest or weed control at 125 g/ha / pest or weed control at 62 g/ha: read-out: Plant response rating, Morningglory; for pest or weed control at 62 g/ha: Postemergence, 62 g ai/ha
Outline: as §1

barnyardgrass [3] = assay: Test A preemergence; format: in vivo, Echinochloa crus-galli; settings: Echinochloa crus-galli, pre-emergence, 240 h, 0 to 100 scale where 0 is no effect and 100 is complete control; for pest or weed control at 125 g/ha: 125 g ai/ha
Outline: as §2

wheat = assay: Test A postemergence; format: in vivo, Triticum aestivum; settings: Triticum aestivum, post-emergence, 240 h; for plant injury at 125 g/ha: 125 g ai/ha, read-out: Wheat plant response rating
Outline: as §2

kochia = assay: Test C postemergence; format: in vivo, Kochia scoparia; settings: Bassia scoparia, post-emergence; for pest or weed control at 16 g/ha: 16 g ai/ha, 0 is no effect, 100 is complete control, read-out: Plant response rating (0 to 100), Kochia; for pest or weed control at 125 g/ha: 125 g ai/ha; for pest or weed control at 125 g/ha / pest or weed control at 62 g/ha: read-out: Plant response rating, Kochia; for pest or weed control at 62 g/ha: Postemergence, 62 g ai/ha
Outline: as §1

ragweed = assay: Test C postemergence; format: in vivo, Ambrosia elatior; settings: for pest or weed control at 16 g/ha / pest or weed control at 125 g/ha / pest or weed control at 62 g/ha: Ambrosia artemisiifolia, post-emergence; for pest or weed control at 16 g/ha: 16 g ai/ha, 0 is no effect, 100 is complete control, read-out: Plant response rating (0 to 100), Ragweed; for pest or weed control at 125 g/ha: 125 g ai/ha; for pest or weed control at 125 g/ha / pest or weed control at 62 g/ha: read-out: Plant response rating, Ragweed; for pest or weed control at 62 g/ha: Postemergence, 62 g ai/ha
Outline: as §1

blackgrass = assay: Test C postemergence; format: in vivo, Alopecurus myosuroides; settings: Alopecurus myosuroides, post-emergence; for pest or weed control at 16 g/ha: 16 g ai/ha, 0 is no effect, 100 is complete control, read-out: Plant response rating (0 to 100), Blackgrass; for pest or weed control at 125 g/ha: 125 g ai/ha; for pest or weed control at 125 g/ha / pest or weed control at 31 g/ha / pest or weed control at 62 g/ha: scale 0 to 100 (0 no effect, 100 complete control); for pest or weed control at 31 g/ha: 31 g ai/ha, 13 to 15 days; for pest or weed control at 62 g/ha: 62 g ai/ha
Outline: as §1

wild oat = assay: Test C postemergence; format: in vivo, Avena fatua; settings: for pest or weed control at 16 g/ha / pest or weed control at 125 g/ha / pest or weed control at 62 g/ha: Avena fatua, post-emergence; for pest or weed control at 16 g/ha: 16 g ai/ha, 0 is no effect, 100 is complete control, read-out: Plant response rating (0 to 100), Oat, Wild; for pest or weed control at 125 g/ha: 125 g ai/ha; for pest or weed control at 125 g/ha / pest or weed control at 62 g/ha: read-out: Plant response rating, Oat, Wild; for pest or weed control at 62 g/ha: Postemergence, 62 g ai/ha
Outline: as §1

velvetleaf = assay: Test C postemergence; format: in vivo, Abutilon theophrasti; settings: for pest or weed control at 16 g/ha / pest or weed control at 125 g/ha / pest or weed control at 62 g/ha: Abutilon theophrasti, post-emergence; for pest or weed control at 16 g/ha: 16 g ai/ha, 0 is no effect, 100 is complete control, read-out: Plant response rating (0 to 100), Velvetleaf; for pest or weed control at 125 g/ha: 125 g ai/ha; for pest or weed control at 125 g/ha / pest or weed control at 62 g/ha: read-out: Plant response rating, Velvetleaf; for pest or weed control at 62 g/ha: Postemergence, 62 g ai/ha
Outline: as §1

barnyardgrass [4] = assay: Test C postemergence; format: in vivo, Echinochloa crus-galli; settings: Echinochloa crus-galli, post-emergence; for pest or weed control at 16 g/ha: 16 g ai/ha, 0 is no effect, 100 is complete control, read-out: Plant response rating (0 to 100), Barnyardgrass; for pest or weed control at 125 g/ha: 125 g ai/ha; for pest or weed control at 125 g/ha / pest or weed control at 31 g/ha / pest or weed control at 62 g/ha: scale 0 to 100 (0 no effect, 100 complete control); for pest or weed control at 31 g/ha: 31 g ai/ha, 13 to 15 days; for pest or weed control at 62 g/ha: 62 g ai/ha
Outline: as §1

[5] = postemergence, visual rating, scale 0 to 100 (0 no effect, 100 complete control)
[6] = scale 0 to 100 (0 no effect, 100 complete control)
[7] = read-out: Plant response rating, Pigweed
[8] = read-out: Plant response rating, Barnyardgrass
[9] = 0 to 100 scale where 0 is no effect and 100 is complete control
[10] = postemergence, visual rating, read-out: Plant response rating, Blackgrass
[11] = Postemergence, read-out: Plant response rating, Blackgrass
[12] = postemergence, visual rating, read-out: Plant response rating, Barnyardgrass
[13] = Postemergence, read-out: Plant response rating, Barnyardgrass
[14] = 31 g ai/ha, postemergence, visual rating, scale 0 to 100 (0 no effect, 100 complete control), 13 to 15 days

SMILES: Fc1cccc(Oc2ncc(Cl)cn2)c1-n1cc(C(F)F)nn1 [Compound 141, 5-chloro-2-[2-[4-(difluoromethyl)-1H-1,2,3-triazol-1-yl]-3-fluorophenoxy]pyrimidine]
- pest or weed control at 250 g/ha (Heteranthera limosa): 100%
- pest or weed control at 16 g/ha (pigweed [1]; postemergence): 90%
- pest or weed control at 125 g/ha (pigweed [1]; [5]): 98%
- pest or weed control at 62 g/ha (pigweed [1]; [6]): 100%
- pest or weed control at 125 g/ha (pigweed [2]; [7]): 100%
- pest or weed control at 31 g/ha (pigweed [2]; 240 h, 31 g ai/ha, visual, approximately 10 days, read-out: Plant response rating, Pigweed): 100%
- pest or weed control at 16 g/ha (morningglory; postemergence): 85%
- pest or weed control at 125 g/ha (morningglory; [5]): 100%
- pest or weed control at 62 g/ha (morningglory; [6]): 95%
- pest or weed control at 31 g/ha (barnyardgrass [3]; 31 g ai/ha, visual, approximately 10 days, read-out: Plant response rating, Barnyardgrass): 90%
- pest or weed control at 125 g/ha (barnyardgrass [3]; [8]): 100%
- plant injury at 31 g/ha (wheat; 31 g ai/ha, 0 to 100 scale, 0 no effect, 100 complete control, read-out: Plant response rating, Wheat): 10%
- plant injury at 125 g/ha (wheat; [9]): 80%
- pest or weed control at 16 g/ha (kochia; postemergence): 100%
- pest or weed control at 125 g/ha (kochia; [5]): 100%
- pest or weed control at 62 g/ha (kochia; [6]): 100%
- pest or weed control at 16 g/ha (ragweed; postemergence): 80%
- pest or weed control at 125 g/ha (ragweed; [5]): 90%
- pest or weed control at 62 g/ha (ragweed; [6]): 98%
- pest or weed control at 16 g/ha (blackgrass; postemergence): 5%
- pest or weed control at 125 g/ha (blackgrass; [10]): 60%
- pest or weed control at 31 g/ha (blackgrass; [11]): 35%
- pest or weed control at 62 g/ha (blackgrass; [11]): 35%
- pest or weed control at 16 g/ha (wild oat; postemergence): 0%
- pest or weed control at 125 g/ha (wild oat; [5]): 30%
- pest or weed control at 62 g/ha (wild oat; [6]): 10%
- pest or weed control at 16 g/ha (velvetleaf; postemergence): 80%
- pest or weed control at 125 g/ha (velvetleaf; [5]): 100%
- pest or weed control at 62 g/ha (velvetleaf; [6]): 100%
- pest or weed control at 16 g/ha (barnyardgrass [4]; postemergence): 15%
- pest or weed control at 125 g/ha (barnyardgrass [4]; [12]): 40%
- pest or weed control at 31 g/ha (barnyardgrass [4]; [13]): 15%
- pest or weed control at 62 g/ha (barnyardgrass [4]; [13]): 20%

SMILES: FC(F)c1cn(-c2ccccc2Oc2ncc(Cl)cn2)nn1 [Compound 147, 5-chloro-2-[2-[4-(difluoromethyl)-1H-1,2,3-triazol-1-yl]phenoxy]pyrimidine]
- pest or weed control at 250 g/ha (Heteranthera limosa): 80%
- Pigweed plant response rating (pigweed [1]; [14]): 60
- pest or weed control at 16 g/ha (pigweed [1]; postemergence): 35%
- pest or weed control at 125 g/ha (pigweed [1]; [5]): 85%
- pest or weed control at 62 g/ha (pigweed [1]; [6]): 75%
- pest or weed control at 125 g/ha (pigweed [2]; [7]): 100%
- pest or weed control at 500 g/ha (pigweed [2]; 240 h, 500 g ai/ha, read-out: Pigweed plant response rating): 100%
- Morningglory plant response rating (morningglory; [14]): 70
- pest or weed control at 16 g/ha (morningglory; postemergence): 70%
- pest or weed control at 125 g/ha (morningglory; [5]): 80%
- pest or weed control at 62 g/ha (morningglory; [6]): 75%
- pest or weed control at 125 g/ha (barnyardgrass [3]; [8]): 100%
- pest or weed control at 500 g/ha (barnyardgrass [3]; 500 g ai/ha, read-out: Barnyardgrass plant response rating): 100%
- plant injury at 125 g/ha (wheat; [9]): 50%
- plant injury at 500 g/ha (wheat; 500 g ai/ha, 0 to 100 scale where 0 is no effect and 100 is complete control, read-out: Plant response rating, Wheat): 80%
- pest or weed control at 16 g/ha (kochia; postemergence): 40%
- pest or weed control at 31 g/ha (kochia; 31 g ai/ha, postemergence, visual rating, scale 0 to 100 (0 no effect, 100 complete control), 13 to 15 days, read-out: Kochia plant response rating): 90%
- pest or weed control at 125 g/ha (kochia; [5]): 100%
- pest or weed control at 62 g/ha (kochia; [6]): 95%
- Ragweed plant response rating (ragweed; [14]): 65
- pest or weed control at 16 g/ha (ragweed; postemergence): 40%
- pest or weed control at 125 g/ha (ragweed; [5]): 85%
- pest or weed control at 62 g/ha (ragweed; [6]): 75%
- pest or weed control at 16 g/ha (blackgrass; postemergence): 0%
- pest or weed control at 31 g/ha (blackgrass; postemergence, visual rating, read-out: Blackgrass plant response rating): 0%
- pest or weed control at 125 g/ha (blackgrass; [10]): 10%
- pest or weed control at 62 g/ha (blackgrass; [11]): 0%
- Oat, Wild plant response rating (wild oat; [14]): 0
- pest or weed control at 16 g/ha (wild oat; postemergence): 0%
- pest or weed control at 125 g/ha (wild oat; [5]): 5%
- pest or weed control at 62 g/ha (wild oat; [6]): 0%
- Velvetleaf plant response rating (velvetleaf; [14]): 70
- pest or weed control at 16 g/ha (velvetleaf; postemergence): 55%
- pest or weed control at 125 g/ha (velvetleaf; [5]): 75%
- pest or weed control at 62 g/ha (velvetleaf; [6]): 85%
- pest or weed control at 16 g/ha (barnyardgrass [4]; postemergence): 0%
- pest or weed control at 31 g/ha (barnyardgrass [4]; postemergence, visual rating, read-out: Barnyardgrass plant response rating): 5%
- pest or weed control at 125 g/ha (barnyardgrass [4]; [12]): 10%
- pest or weed control at 62 g/ha (barnyardgrass [4]; [13]): 5%
